# Results: patent US20260109731A1, “NE[…] USE THEREOF” (HUNAN MINGRUI PHARMACEUTICAL CO., LTD., priority 2023, published 2026)
# Test: Pharmacokinetic analysis of tail vein administration in mice
# Conditions: female, ICR, mouse, 5 mg/kg; for concentration at 5 min / concentration at 1 h / concentration at 8 h: brain; for clearance / half-life: plasma, iv
# Experimental: Female ICR mice (body weight: 20 g to 22 g) were purchased from BEIJING HFK BIOSCIENCE CO., LTD.
# The animals were sacrificed at blood collection time points (5 min, 1 h and 8 h) for brain tissue collection, and the collected brain tissues were stored at −80° C. for later testing.
# 100 μL of plasma sample, 10 μL of internal standard solution (100 ng/mL testosterone D-3 solution), and 310 μL of acetonitrile were accurately measured, uniformly mixed by vortexing, and centrifuged (14000 rpm, 4° C.), and a resulting supernatant was taken to obtain the plasma sample.
# About 100 mg of brain tissue sample was taken, and accurately weighed, 100 μL of water and 400 μL acetonitrile were accurately added thereto, and a resulting mixture was subjected to homogenization. 100 μL of brain tissue homogenate, 10 μL of internal standard solution (100 ng/mL testosterone D-3 solution), and 310 μL of acetonitrile were accurately measured, uniformly mixed by vortexing, and centrifuged (14000 rpm, 4° C.), and a resulting supernatant was taken to obtain the brain tissue sample.
# 100 μL of blank plasma sample, 10 μL of mixed standard solution, 10 μL of internal standard solution (100 ng/mL testosterone D-3 solution), and 300 μL of acetonitrile were accurately measured, uniformly mixed by vortexing, and centrifuged (14000 rpm, 4° C.), and a resulting supernatant was taken to obtain the plasma matrix standard solution.
# About 100 mg of blank brain tissue sample was taken, and accurately weighed, 100 μL of water and 400 μL acetonitrile were accurately added thereto, and a resulting mixture was subjected to homogenization using a homogenizer. 100 μL of brain tissue homogenate, 10 μL of mixed standard solution, 10 μL of internal standard solution (100 ng/mL testosterone D-3 solution) and 300 μL of acetonitrile were accurately measured, uniformly mixed by vortexing, and centrifuged (14000 rpm, 4° C.), and a resulting supernatant was taken to obtain the Brain tissue matrix standard solution.
# The UPLC-MS/MS method with testosterone D-3 as the internal standard was used to perform analysis and determination by the standard curve method.
SMILES,concentration at 5 min (intravenous),concentration at 1 h (intravenous),concentration at 8 h (intravenous),"Kp at 5 min (brain/plasma, intravenous)","Kp at 1 h (brain/plasma, intravenous)","Kp at 8 h (brain/plasma, intravenous)",clearance,half-life
CC(=O)[C@H]1CC[C@H]2[C@@H]3CC[C@H]4C[C@H](O[N+](=O)[O-])CC[C@]4(C)[C@H]3CC[C@]12C [Compound 1],1140 ng/g,652 ng/g,31 ng/g,0.65,7.58,2.27,197 mL/min/kg,50.4 min
"CC(=O)[C@H]1CC[C@H]2[C@@H]3CC[C@H]4C[C@H](O)CC[C@]4(C)[C@H]3CC[C@]12C [Allopregnanolone, 5α-pregnan-3α-ol-20-one, reference compound]",1070 ng/g,47.3 ng/g,14.4 ng/g,1.28,2.71,–,218 mL/min/kg,40.8 min
